Laboratory results from patent US5459143A, “N,N-disubstituted piperazines” (Bayer Aktiengesellschaft, priority 1993, dated 1995).
pIC50: −log10 of the molar value.

Experiments:
Lewis rats = test: Adjuvant arthritis model in the rat; format: in vivo; conditions: Freund's adjuvant arthritis, malleolus diameter day 16 vs day 0, dosing on days 0, 1, 2, 5, 7, 9, 12 and 14
Protocol: Adjuvant arthritis model in the rat
Freund's adjuvant (FA) is prepared by addition of 10 mg/ml of heat-killed Mycobacterium butyricum to extra-heavy mineral oil. Lewis rats receive a 0.1 ml injection of FA (1 mg/animal) subcutaneously in the right hind paw. An acute inflammation takes place there, which is characterized by reddening, edema and a predominant neutrophilic cell infiltration (primary reaction). Tumescent areas in the treated paw on day 5 are followed between day 10-12 by an increase in the swelling (chronic inflammatory reaction) and the occurrence of a swelling in the opposite untreated paw (secondary immune response).
The cell infiltration of the chronic inflammation and the second immune response are mainly mononuclear, which indicates the presence of T-cell mediated immunity. The animals are observed daily, and the swelling is measured in millimeters on days 12 and 16 using a hand-adjustable micrometer. The swelling reaches its peak on the 16th day, on which the animals are sacrificed and tissue samples are taken for histological evaluation.
The extent of the swelling is determined by calculation of the greatest difference in the malleolus diameter between the 16th and the 0th day.
The animals receive the compounds according to the invention in a suspension of 5% polyethylene glycol and 0.5% Tween 80 in phosphate buffer solution p.o. or i.p. on days 0, 1, 2, 5, 7, 9, 12 and 14 [cf. for this purpose L. Sokoloff, 1984, Int. Rev. Exp. Pathol. 26, 107; M. E. J. Bittingham et al., 1989, J. Exp. Med. 171, 339; K. M. Connolly et al., 1989, Agents and Actions 27, 328].

[1] = test system: monocyte-free human T cells; test: Inhibition of 5-HT-dependent T cell proliferation; format: cell-based; conditions: PWM (1:200) and 5-HT (100 μM) stimulated T cells, 3H-thymidine incorporation on day 7, tested at 33 μM-0.1 μM
Text: The in vitro activity of the compounds according to the invention results from their capability to inhibit T cell proliferation, which is previously stimulated by serotonin.
Inhibition of 5-HT-dependent T cell proliferation
Peripheral mononuclear blood cells (PBMC) are obtained from the buffy coat of the blood of healthy subjects. After isolation by means of isolymph gradients (Pharmacia), the PBMC are washed twice and used directly. Purified T cells are obtained by E rosette formation with sheep erythrocytes [cf. Blue, M. -L., J. F. Daley, H. Levine, K. A. Craig and S. F. Schlossmann, 1986, Biosynthesis and surface expression of T8 by peripheral blood T4+ cells in vitro, J. Immunol. 137, 1202]. Monocytes are partially removed by adhesion to tissue culture plates or flasks. PBMC, T cells or purified T cells (depleted in monocytes) at 5×10^5 /ml, 100 μl/well are cultured in RPMI 1640 medium with 10% fetal calf serum (GIBCO) and L-glutamine in 96-well microculture plates (Becton-Dickinson) under a 5% CO2 atmosphere at 37° C. for 7 days. The cultures are treated with 1 μCi of ^3 H-thymidine for 6 h on the 7th day and collected on filter paper, and the incorporated radioactivity is determined by means of liquid scintillation counting.
The test substances are dissolved in 10 mM HCl in order to achieve a final concentration of 1 mM in each case. The compounds are diluted serially 3× with medium in order to obtain a final concentration between 33 μM-0.1 μM. PWM (1:200, pokeweed mitogen) and 5-HT (100 μM, serotonin), which contain the test substances, are added to monocyte-free human T cells. The positive control (maximum proliferation) is obtained from cultures containing T cells, PWM and 5-HT. The negative control (minimal proliferation) is obtained from cultures containing T cells and PWM without 5-HT. The inhibitory activity of the test substances is expressed as the IC50 in μM.

Structure (SMILES)	Inhibition of the swelling in % after administration of 10 mg/kg i.p. (Lewis rats)	pIC50 [1]
CC12c3ccccc3C(c3ccccc31)C1CN(CCCN3CCN(C(c4ccccc4)c4ccccc4)CC3)CC12 (centres unmarked) [Example 20]	79%	6.30
O=C1C2C3c4ccccc4C(c4ccccc43)C2C(=O)N1CCCN1CCN(C(c2ccccc2)c2ccccc2)CC1 (centres unmarked) [Example 4]		< 5.00
O=C1C2C3c4ccccc4C(c4ccccc43)C2C(=O)N1CCCN1CCN(c2ncccn2)CC1 (centres unmarked) [Example 3]		< 5.00
O=C1C2C3c4ccccc4C(c4ccccc43)C2C(=O)N1CCCN1CCN(C(c2ccccc2)c2ccc(Cl)cc2)CC1 (centres unmarked) [Example 8]		4.30
Clc1ccc(C(c2ccccc2)N2CCN(CCCN3CC4C5c6ccccc6C(c6ccccc65)C4C3)CC2)cc1 (centres unmarked) [Example 26]		6.00
c1cnc(N2CCN(CCCCN3CC4C5c6ccccc6C(c6ccccc65)C4C3)CC2)nc1 (centres unmarked) [Example 17]		< 5.00
c1ccc(C(c2ccccc2)N2CCN(CCCN3CC4C5c6ccccc6C(c6ccccc65)C4C3)CC2)cc1 (centres unmarked) [Example 21]	0.5%	6.30
O=C1C2C3c4ccccc4C(c4ccccc43)C2C(=O)N1CCCN1CCN(C2CCCC2)CC1 (centres unmarked) [Example 10]		4.52
c1ccc2c(c1)C1c3ccccc3C2C2CN(CCCN3CCN(C4CCCC4)CC3)CC12 (centres unmarked) [Example 24]		5.22
O=C1C2C3c4ccccc4C(c4ccccc43)C2C(=O)N1CCCN1CCN(CCc2ccccc2C(F)(F)F)CC1 (centres unmarked) [Example 5]	24%	5.70
O=C1C2C3c4ccccc4C(c4ccccc43)C2C(=O)N1CCCN1CCN(C(c2ccc(F)cc2)c2ccc(F)cc2)CC1 (centres unmarked) [Example 1]		< 5.00
c1cnc(N2CCN(CCCN3CC4C5c6ccccc6C(c6ccccc65)C4C3)CC2)nc1 (centres unmarked) [Example 15]		5.70
Fc1ccc(C(CCCN2CCN(CCCN3CC4C5c6ccccc6C(c6ccccc65)C4C3)CC2)c2ccc(F)cc2)cc1 (centres unmarked) [Example 23]		7.00
CC(C)(C)c1ccc(CN2CCN(CCCN3CC4C5c6ccccc6C(c6ccccc65)C4C3)CC2)cc1 (centres unmarked) [Example 18]		5.70
Fc1ccc(C(c2ccc(F)cc2)N2CCN(CCCN3CC4C5c6ccccc6C(c6ccccc65)C4C3)CC2)cc1 (centres unmarked) [Example 13]	2%	
CC(C)(C)c1ccc(CN2CCN(CCCN3C(=O)C4C5c6ccccc6C(c6ccccc65)C4C3=O)CC2)cc1 (centres unmarked) [Example 6]	24%	5.52
FC(F)(F)c1ccccc1CCN1CCN(CCCN2CC3C4c5ccccc5C(c5ccccc54)C3C2)CC1 (centres unmarked) [Example 16]	13%	5.30
c1ccc2c(c1)C1c3ccccc3C2C2CN(CCCN3CCN(C4CCCCCC4)CC3)CC12 (centres unmarked) [Example 19]		5.30
